Assay results taken from ChEMBL document CHEMBL5137008, “Recent advances of antitumor shikonin/alkannin derivatives: A comprehensive overview focusing on structural classification, synthetic approaches, and mechanisms of action” (Eur J Med Chem, 2022).

Tests used:
[1] = tested on: HeLa; experiment: Antiproliferative activity against human HeLa cells assessed as reduction in cell viability incubated for 24 hrs by MTT assay; format: functional, cell-based
[2] = tested on: A549; experiment: Anticancer activity against human A549 cells assessed as inhibition of cell growth incubated for 72 hrs by MTT assay; format: functional, cell-based; details: A549, 72 h
[3] = tested on: HeLa; experiment: Antiproliferative activity against human HeLa cells assessed as inhibition of cell proliferation incubated for 20 hrs by MTT assay; format: functional, cell-based
[4] = tested on: A549; experiment: Antiproliferative activity against human A549 cells assessed as inhibition of cell proliferation incubated for 24 hrs by MTT assay; format: functional, cell-based; details: A549, 24 h
[5] = Cytotoxicity against human L02 cells assessed as inhibition of cell growth incubated for 24 hrs by MTT assay; format: toxicity, cell-based
[6] = tested on: MDA-MB-436; experiment: Antiproliferative activity against human MDA-MB-436 cells assessed as inhibition of cell growth incubated for 24 hrs in presence of foetal bovine serum by MTT assay; format: functional, cell-based; details: MDA-MB-436, 24 h
[7] = tested on: MCF7; experiment: Antiproliferative activity against human MCF7 cells assessed as inhibition of cell proliferation incubated for 20 hrs by MTT assay; format: functional, cell-based; details: MCF7, 20 h
[8] = tested on: HCT-15; experiment: Anticancer activity against human HCT-15 cells incubated for 72 hrs by MTT assay; format: functional, cell-based; details: HCT-15, 72 h
[9] = Anticancer activity against human A875 cells assessed as inhibition of cell growth incubated for 72 hrs by MTT assay; format: functional, cell-based; details: A875, 72 h
[10] = Antitubulin activity against bovine brain tubulin polymerization preincubated with compound followed by GTP addition and measured after 20 mins by turbidimetry-based spectrophotometric method; design: species or system Bos taurus
[11] = tested on: A549; experiment: Antiproliferative activity against human A549 cells assessed as inhibition of cell growth incubated for 24 hrs by MTT assay; format: functional, cell-based; details: A549, 24 h
[12] = tested on: B16-F10; experiment: Antiproliferative activity against mouse B16-F10 cells incubated for 24 hrs by MTT assay; format: functional, cell-based; details: B16-F10, 24 h
[13] = Cytotoxicity against human HEK293T cells assessed as inhibition of cell growth incubated for 24 hrs in presence of foetal bovine serum by MTT assay; format: toxicity, cell-based, HEK-293T
[14] = Antiproliferative activity against human BGC cells assessed as inhibition of cell proliferation incubated for 20 hrs by MTT assay; format: functional, cell-based
[15] = tested on: HepG2; experiment: Antiproliferative activity against human HepG2 cells assessed as inhibition of cell proliferation incubated for 20 hrs by MTT assay; format: functional, cell-based; details: HepG2, 20 h
[16] = tested on: HeLa; experiment: Antiproliferative activity against human HeLa cells assessed as inhibition of cell growth incubated for 24 hrs by MTT assay; format: functional, cell-based
[17] = tested on: MG-63; experiment: Antiproliferative activity against human MG-63 cells incubated for 24 hrs by MTT assay; format: functional, cell-based; details: MG-63, 24 h

IC50 [1]: 2.82 µM
IC50 [2]: 1.8 µM
IC50 [3]: 3.11 µM
IC50 [4]: 3.13 µM
IC50 [6]: 3.61 µM
IC50 [7]: 1.03 µM
IC50 [8]: 0.94 µM
IC50 [10]: 15.2 µM
IC50 [11]: 10.4 µM
IC50 [12]: 17.9 µM
IC50 [15]: 0.92 µM
IC50 [16]: 6.5 µM
Structure (SMILES): CC(C)=CC[C@@H](O)C1=CC(=O)c2c(O)ccc(O)c2C1=O [SHIKONIN]
IC50 at 24 h [5]: 3.26 µM
IC50 [9]: 0.58 µM
IC50 at 24 h [13]: 9.27 µM
IC50 [14]: 2.2 µM
IC50 [17]: 7.36 µM
